According to ChEMBL document CHEMBL1201862, “PubChem BioAssay data set” (2004):
Calls of active or inactive are those of the source.

Experiments:
cells [1] = assay type: functional, cell-based
[2] = molecular target: Adenosylmethionine-8-amino-7-oxononanoate aminotransferase (Mycobacterium tuberculosis, UniProt P9WQ81); test: Mycobacterium tuberculosis BioA enzyme inhibitor Measured in Biochemical System Using Plate Reader - 2163-02_Inhibitor_Dose_CherryPick_Activity.; assay type: functional, Mycobacterium tuberculosis UT205
Sequence of Adenosylmethionine-8-amino-7-oxononanoate aminotransferase (P9WQ81 whole entry): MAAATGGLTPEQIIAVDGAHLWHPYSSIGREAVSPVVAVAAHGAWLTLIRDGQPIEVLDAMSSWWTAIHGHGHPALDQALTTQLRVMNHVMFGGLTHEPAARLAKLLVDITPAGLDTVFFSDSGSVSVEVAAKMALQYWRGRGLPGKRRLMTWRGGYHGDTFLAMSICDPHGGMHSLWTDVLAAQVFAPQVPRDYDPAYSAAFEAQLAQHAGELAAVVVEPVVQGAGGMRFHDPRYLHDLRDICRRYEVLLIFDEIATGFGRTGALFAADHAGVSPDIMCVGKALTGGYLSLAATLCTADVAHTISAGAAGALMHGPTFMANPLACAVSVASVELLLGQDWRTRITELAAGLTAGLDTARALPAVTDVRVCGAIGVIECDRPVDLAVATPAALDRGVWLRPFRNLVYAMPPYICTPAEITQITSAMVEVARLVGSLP

cells [3] = assay type: functional, cell-based; remark: listed apart in the source
[4] = molecular target: T1, Replicative DNA helicase DnaB (Mycobacterium tuberculosis, UniProt P9WMR3); test: DnaB intein splicing inhibitors, dose response, biochemical, cell-free fluorescence (AID 449749); assay type: functional
T1 sequence (P9WMR3 whole entry): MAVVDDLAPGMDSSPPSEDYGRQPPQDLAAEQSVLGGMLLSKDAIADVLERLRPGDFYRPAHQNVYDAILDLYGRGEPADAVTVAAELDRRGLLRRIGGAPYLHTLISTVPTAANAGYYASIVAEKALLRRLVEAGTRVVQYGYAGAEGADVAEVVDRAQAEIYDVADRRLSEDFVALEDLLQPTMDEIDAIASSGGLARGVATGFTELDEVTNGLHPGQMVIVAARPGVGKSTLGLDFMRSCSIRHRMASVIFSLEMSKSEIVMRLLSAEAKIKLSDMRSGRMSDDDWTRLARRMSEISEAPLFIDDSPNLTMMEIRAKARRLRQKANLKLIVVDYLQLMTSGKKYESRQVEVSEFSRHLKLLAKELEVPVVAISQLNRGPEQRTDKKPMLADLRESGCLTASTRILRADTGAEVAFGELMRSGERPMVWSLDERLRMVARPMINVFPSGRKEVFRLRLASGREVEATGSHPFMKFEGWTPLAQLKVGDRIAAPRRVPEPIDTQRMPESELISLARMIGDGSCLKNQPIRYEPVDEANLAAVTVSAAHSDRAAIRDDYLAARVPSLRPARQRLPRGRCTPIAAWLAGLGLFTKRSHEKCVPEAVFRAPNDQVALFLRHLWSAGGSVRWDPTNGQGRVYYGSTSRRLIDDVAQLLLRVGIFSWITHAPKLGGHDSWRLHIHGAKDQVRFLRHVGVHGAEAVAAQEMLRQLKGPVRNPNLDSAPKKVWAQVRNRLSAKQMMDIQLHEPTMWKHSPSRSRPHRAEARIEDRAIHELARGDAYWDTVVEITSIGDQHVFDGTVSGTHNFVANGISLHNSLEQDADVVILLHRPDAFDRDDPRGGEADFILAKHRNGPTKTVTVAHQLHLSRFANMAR

[5] = molecular target: T2, Probable nicotinate-nucleotide adenylyltransferase (Staphylococcus aureus (strain N315), UniProt P65502); assay type: functional, Staphylococcus aureus subsp. aureus N315; conditions: read-out: IC50_Mean;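 for IC50 Mean: confirmatory dose-response retesting of NadD inhibitor hits first found in an ultra-high-throughput screen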
T2 sequence (P65502 whole entry): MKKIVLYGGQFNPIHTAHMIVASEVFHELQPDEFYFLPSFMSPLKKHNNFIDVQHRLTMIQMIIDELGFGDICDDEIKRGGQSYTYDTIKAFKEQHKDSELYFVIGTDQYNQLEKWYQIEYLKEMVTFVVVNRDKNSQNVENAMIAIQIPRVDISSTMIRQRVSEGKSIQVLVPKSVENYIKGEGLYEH

[6] = molecular target: T2, Probable nicotinate-nucleotide adenylyltransferase; assay type: functional, Staphylococcus aureus subsp. aureus N315
Protein RecA = molecular target: T3, Protein RecA (Mycobacterium tuberculosis, UniProt P9WHJ3); test: Fluorescence Cell-Free Homogeneous Dose Retest to Identify Inhibitors of RecA-Intein Splicing Activity. [Related pubchem assays (depositor defined):AID2097, AID2223, AID489010, AID492950]; assay type: functional
T3 sequence (P9WHJ3 whole entry): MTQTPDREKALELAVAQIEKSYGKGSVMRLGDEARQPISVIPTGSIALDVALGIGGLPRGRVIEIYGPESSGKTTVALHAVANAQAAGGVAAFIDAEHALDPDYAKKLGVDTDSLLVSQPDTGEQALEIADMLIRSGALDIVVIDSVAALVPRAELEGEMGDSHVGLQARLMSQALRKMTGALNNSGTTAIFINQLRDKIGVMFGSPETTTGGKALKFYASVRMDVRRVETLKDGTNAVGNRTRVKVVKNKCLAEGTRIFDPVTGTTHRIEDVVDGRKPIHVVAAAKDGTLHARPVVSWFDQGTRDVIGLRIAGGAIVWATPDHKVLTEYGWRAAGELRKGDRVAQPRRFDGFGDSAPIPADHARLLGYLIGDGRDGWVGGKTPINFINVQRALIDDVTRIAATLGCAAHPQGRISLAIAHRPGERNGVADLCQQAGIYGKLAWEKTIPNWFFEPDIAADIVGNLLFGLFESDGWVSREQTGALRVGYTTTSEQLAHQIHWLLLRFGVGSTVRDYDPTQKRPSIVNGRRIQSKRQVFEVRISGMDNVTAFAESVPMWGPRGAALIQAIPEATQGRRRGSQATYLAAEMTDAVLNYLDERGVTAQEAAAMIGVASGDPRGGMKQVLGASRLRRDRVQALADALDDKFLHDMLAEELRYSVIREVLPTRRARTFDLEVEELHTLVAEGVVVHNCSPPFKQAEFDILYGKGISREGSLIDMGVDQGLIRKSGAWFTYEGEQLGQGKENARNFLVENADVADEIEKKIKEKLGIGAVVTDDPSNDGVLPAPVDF

[7] = molecular target: T4, Corticotropin-releasing factor receptor 2/Corticotropin-releasing factor-binding protein (Homo sapiens, UniProt P24387+Q13324); test: activators of CRF receptor 2 with binding protein – uHTS hits, confirmation (AID 602473); assay type: functional; conditions: read-out: EC50_Mean
T4 sequence (Q13324 whole entry): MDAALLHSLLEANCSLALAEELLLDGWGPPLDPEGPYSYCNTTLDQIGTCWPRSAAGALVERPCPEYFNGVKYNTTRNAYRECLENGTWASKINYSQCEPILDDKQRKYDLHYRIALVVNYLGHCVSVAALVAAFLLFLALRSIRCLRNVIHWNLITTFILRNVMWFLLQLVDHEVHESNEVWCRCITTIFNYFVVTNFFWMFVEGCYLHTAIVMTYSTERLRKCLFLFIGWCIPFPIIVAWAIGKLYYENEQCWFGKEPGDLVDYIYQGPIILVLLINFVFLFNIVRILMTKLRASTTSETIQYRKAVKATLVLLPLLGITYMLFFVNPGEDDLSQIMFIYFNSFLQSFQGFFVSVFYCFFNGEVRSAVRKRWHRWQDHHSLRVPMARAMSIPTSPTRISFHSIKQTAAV
T4 sequence (P24387 whole entry): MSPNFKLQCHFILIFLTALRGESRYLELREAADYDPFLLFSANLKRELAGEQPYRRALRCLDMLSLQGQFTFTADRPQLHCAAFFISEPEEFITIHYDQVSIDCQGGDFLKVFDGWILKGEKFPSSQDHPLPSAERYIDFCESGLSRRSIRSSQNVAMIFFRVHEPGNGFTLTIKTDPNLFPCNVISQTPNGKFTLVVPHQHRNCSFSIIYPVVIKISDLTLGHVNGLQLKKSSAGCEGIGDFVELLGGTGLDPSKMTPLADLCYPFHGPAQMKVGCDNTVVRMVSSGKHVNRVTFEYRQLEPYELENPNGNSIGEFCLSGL

[8] = molecular target: T4, Corticotropin-releasing factor receptor 2/Corticotropin-releasing factor-binding protein; test: Dose Response confirmation of uHTS hits for small molecule antagonists of the CRF-binding protein and CRF-R2 receptor complex.; assay type: functional; conditions: read-out: IC50_Mean
[9] = CRF-BP/CRF-R2 complex antagonists, dose response, cell-based, uHTS hits, 384-well (AID 651639); assay type: functional, Homo sapiens; conditions: read-out: IC50_Mean
[10] = molecular target: Photoreceptor-specific nuclear receptor (Homo sapiens, UniProt Q9Y5X4); assay type: functional, cell-based;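 note: CHO-S cells with Gal4-NCOR and VP16-NR2E3 two-hybrid luciferase reporter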
Sequence of Photoreceptor-specific nuclear receptor (Q9Y5X4 whole entry, the tested form may be a part): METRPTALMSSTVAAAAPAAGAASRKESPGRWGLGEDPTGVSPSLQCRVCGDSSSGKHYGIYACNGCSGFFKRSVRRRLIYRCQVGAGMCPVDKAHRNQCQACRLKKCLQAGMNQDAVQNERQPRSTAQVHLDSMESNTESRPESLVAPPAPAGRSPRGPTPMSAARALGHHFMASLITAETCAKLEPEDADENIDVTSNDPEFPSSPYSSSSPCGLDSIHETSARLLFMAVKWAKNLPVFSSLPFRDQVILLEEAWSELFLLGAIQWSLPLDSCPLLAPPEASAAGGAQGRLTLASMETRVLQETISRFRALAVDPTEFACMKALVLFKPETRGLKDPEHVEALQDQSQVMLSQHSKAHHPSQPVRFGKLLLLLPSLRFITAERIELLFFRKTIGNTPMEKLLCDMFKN

[11] = molecular target: T5, Rac GTPase-activating protein 1 (Homo sapiens, UniProt Q9H0H5); test: MgcRacGAP GTPase-activating activity inhibitors, confirmation, biochemical, ADP Hunter fluorescence, primary and confirmatory (AID 624330); assay type: functional
T5 sequence (Q9H0H5 whole entry): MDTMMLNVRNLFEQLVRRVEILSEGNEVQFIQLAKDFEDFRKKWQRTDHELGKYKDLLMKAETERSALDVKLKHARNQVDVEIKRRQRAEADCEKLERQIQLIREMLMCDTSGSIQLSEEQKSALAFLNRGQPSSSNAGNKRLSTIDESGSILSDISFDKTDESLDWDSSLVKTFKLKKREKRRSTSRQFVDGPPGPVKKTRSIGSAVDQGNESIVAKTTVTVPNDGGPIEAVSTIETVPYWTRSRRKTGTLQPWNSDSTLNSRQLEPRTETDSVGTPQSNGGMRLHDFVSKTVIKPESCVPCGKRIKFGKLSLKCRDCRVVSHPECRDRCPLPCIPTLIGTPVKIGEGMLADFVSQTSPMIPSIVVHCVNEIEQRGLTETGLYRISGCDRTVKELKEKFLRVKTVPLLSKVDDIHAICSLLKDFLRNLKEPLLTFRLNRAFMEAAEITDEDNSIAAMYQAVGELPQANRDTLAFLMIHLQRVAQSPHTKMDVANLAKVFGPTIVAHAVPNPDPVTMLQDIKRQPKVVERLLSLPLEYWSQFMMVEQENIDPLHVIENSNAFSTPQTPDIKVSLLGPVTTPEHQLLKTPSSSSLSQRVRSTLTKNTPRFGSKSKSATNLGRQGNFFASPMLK

Beta Lactamase = Beta Lactamase (Pseudomonas aeruginosa, UniProt Q932Y6); test: beta-lactamase reporter inhibitor potency, dose response, artefact control for NOD2-RIPK2 interaction inhibitor project, BLA reporter cells, FRET fluorescence (AID 651552); assay type: functional, cell-based
Sequence of Beta Lactamase (Q932Y6 whole entry): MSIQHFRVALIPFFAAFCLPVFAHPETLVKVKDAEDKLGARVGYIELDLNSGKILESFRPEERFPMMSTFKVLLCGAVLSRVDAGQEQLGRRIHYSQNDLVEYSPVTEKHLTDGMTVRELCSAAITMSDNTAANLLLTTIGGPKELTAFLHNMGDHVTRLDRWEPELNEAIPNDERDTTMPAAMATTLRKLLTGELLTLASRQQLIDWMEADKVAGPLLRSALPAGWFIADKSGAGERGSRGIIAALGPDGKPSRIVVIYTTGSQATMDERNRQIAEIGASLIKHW

[12] = molecular target: Mitochondrial peptide methionine sulfoxide reductase (Bos taurus, UniProt P54149); test: Absorbance-based biochemical high throughput dose response assay for activators of Methionine sulfoxide reductase A (MsrA).; assay type: functional
Sequence of Mitochondrial peptide methionine sulfoxide reductase (P54149 whole entry, the tested form may be a part): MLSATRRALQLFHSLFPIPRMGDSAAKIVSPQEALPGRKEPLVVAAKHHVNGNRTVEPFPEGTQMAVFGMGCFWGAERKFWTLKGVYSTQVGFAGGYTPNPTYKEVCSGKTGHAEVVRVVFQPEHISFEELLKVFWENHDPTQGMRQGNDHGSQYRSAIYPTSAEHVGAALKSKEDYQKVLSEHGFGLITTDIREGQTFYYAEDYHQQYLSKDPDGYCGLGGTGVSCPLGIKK

[13] = Fluorescence-based cell-based high throughput dose response assay for inhibitors of the interaction of nucleotide-binding oligomerization domain containing 2 (NOD2) and the receptor-interacting serine-threonine kinase 2 (RIPK2).; assay type: functional; conditions: Homo sapiens
[14] = molecular target: Glucose-6-phosphate 1-dehydrogenase (Homo sapiens, UniProt P11413); test: human G6PD enzyme inhibitors, dose response, selectivity assay for P. falciparum G6PD inhibitor project, biochemical, fluorescence (AID 504792); assay type: functional
Sequence of Glucose-6-phosphate 1-dehydrogenase (P11413 whole entry): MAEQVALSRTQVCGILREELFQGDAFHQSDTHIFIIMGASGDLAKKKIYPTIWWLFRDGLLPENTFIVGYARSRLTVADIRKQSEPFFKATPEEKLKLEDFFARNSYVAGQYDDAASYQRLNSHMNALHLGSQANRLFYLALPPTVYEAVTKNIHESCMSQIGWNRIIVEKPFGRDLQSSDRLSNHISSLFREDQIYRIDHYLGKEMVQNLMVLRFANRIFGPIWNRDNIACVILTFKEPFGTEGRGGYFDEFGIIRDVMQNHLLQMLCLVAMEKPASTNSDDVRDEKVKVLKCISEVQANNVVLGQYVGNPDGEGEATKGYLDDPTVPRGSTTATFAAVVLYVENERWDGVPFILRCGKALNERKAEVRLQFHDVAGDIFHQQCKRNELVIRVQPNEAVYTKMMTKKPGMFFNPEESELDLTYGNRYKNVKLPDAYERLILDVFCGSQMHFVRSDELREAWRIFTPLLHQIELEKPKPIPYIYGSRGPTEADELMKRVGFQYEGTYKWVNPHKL

Hexokinase = molecular target: T6, Hexokinase (Trypanosoma brucei, UniProt Q38C41); test: Confirmation assay for inhibitors of Trypanosoma brucei hexokinase 1-Analogue-first series. [Related pubchem assays (depositor defined):AID1430, AID1632, AID2516, AID2560, AID2579, AID2600, AID449725, AID492951]; assay type: functional
T6 sequence (Q38C41 whole entry): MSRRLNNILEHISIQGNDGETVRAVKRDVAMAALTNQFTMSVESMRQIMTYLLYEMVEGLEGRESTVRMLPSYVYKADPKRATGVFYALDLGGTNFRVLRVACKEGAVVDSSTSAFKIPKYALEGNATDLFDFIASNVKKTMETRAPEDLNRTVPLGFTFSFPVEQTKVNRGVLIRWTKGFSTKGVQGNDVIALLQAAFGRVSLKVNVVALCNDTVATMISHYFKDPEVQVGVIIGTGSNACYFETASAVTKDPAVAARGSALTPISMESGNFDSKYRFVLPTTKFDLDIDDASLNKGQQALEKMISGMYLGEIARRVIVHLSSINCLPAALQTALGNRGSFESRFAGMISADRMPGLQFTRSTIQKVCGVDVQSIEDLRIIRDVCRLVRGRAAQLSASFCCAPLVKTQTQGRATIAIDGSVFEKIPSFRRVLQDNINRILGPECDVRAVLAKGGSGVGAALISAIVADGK

[15] = AlphaScreen signal interference compounds, dose response, artefact control for ARNT-TACC3 interaction inhibitor project, biochemical, luminescence, cherry-pick (AID 651705); assay type: functional;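 note: AlphaScreen bead proximity signal that flags compounds interfering with the detection technology; potency reflects signal decrease which marks the compound as an assay artifact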
[16] = ARNT/TACC3 interaction disruptors, potency, confirmation, biochemical, AlphaScreen, cherry-picked samples (AID 651703); assay type: functional, Homo sapiens;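 note: His-tagged ARNT PAS-B domain paired with GST-TACC3 E629A dimer coactivator fragment; potency of inhibitors that break up the complex and lower AlphaScreen signal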
[17] = inhibitors of HIV Env-driven cell fusion, dose response, cherry-pick (AID 652057); assay type: functional, cell-based
[18] = inhibitors of clade B AD8 Env fusion, dose response, cell-based, cherry-pick (AID 652062); assay type: functional;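 note: luciferase signal from cell-cell fusion driven by HIV-1 clade B AD8 Env; potency is for inhibitors of fusion seen as a drop in luminescence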
[19] = molecular target: Mitogen-activated protein kinase 10 (Homo sapiens, UniProt P53779); test: Dose response biochemical screening assay for inhibitors of c-Jun N-Terminal Kinase 3 (JNK3). [Related pubchem assays: 746 ]
Sequence of Mitogen-activated protein kinase 10 (P53779 whole entry, the tested form may be a part): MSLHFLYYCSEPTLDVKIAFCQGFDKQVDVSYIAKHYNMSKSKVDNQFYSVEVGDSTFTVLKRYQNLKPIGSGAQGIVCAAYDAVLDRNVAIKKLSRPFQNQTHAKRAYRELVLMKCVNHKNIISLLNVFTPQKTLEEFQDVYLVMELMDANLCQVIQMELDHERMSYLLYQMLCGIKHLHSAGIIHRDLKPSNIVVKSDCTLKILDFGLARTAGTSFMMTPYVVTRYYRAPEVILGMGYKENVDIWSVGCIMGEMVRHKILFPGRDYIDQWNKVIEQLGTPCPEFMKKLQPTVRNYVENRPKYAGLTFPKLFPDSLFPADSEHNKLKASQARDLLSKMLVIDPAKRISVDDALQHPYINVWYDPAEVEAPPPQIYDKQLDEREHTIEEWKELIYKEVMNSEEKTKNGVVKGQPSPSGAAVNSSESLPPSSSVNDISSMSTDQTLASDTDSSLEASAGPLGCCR

[20] = off-target signal loss in HeLa-CEM21 co-culture – HeLa F-luc CTL cells, cherry-picked, counter-screen for HIV-1 Env fusion inhibitor project, dose response (AID 652040); assay type: functional, cell-based;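 note: potency for signal decrease marking cytotoxic or nonspecific inhibition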
Interleukin-8 = molecular target: T7, Interleukin-8 (Homo sapiens, UniProt P10145); test: Dose Response confirmation of uHTS small molecule hits for cystic fibrosis induced NFkb Inhibitors in a PAF-induced IL8 counterscreen.; assay type: functional; conditions: read-out: IC50_Mean
T7 sequence (P10145 whole entry): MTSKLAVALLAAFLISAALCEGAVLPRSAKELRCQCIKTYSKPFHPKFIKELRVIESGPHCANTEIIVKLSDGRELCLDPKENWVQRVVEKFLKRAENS

SMILES: CC(=O)c1ccc(C(=O)N2CCCC(Nc3ccc(C(C)C)cc3)C2)s1 (stereo unspecified)
- EC50 (cells [1]): > 350 µM (not active)
- AC50 [2]: 0.833 µM (active)
- EC50 (cells [3]): > 350 µM (not active)

SMILES: CCn1c(SCC(=O)Nc2nc(-c3ccc(C)cc3)cs2)nnc1-c1ccccc1O
- AC50 [4]: 3.46 µM (active)
- IC50 [5]: 41.6 µM (active)
- IC50 [6]: 17.9 µM (active)
- EC50 (Protein RecA): 174 µM (active)

SMILES: O=C(Nc1ccc(F)c(F)c1)C1CCN(S(=O)(=O)c2cccs2)CC1
- AC50 [2]: 0.564 µM (active)

SMILES: O=[N+]([O-])c1ccc(NS(=O)(=O)c2ccccc2)c(Cl)c1
- EC50 [7]: > 53 µM (inactive)
- IC50 [8]: 4.45 µM (active)
- IC50 [9]: > 20 µM (inactive)
- IC50 [10]: 3.22 µM (active)

SMILES: O=c1c2ccc(F)cc2sn1-c1ccccc1
- IC50 [11]: 36.4 µM (active)
- IC50 (Beta Lactamase): 23.4 µM (inactive)
- EC50 [12]: > 104 µM (inactive)
- IC50 [13]: 5.43 µM (active)
- IC50 [14]: 11.8 µM (active)
- IC50 (Hexokinase): 2.31 µM (active)

SMILES: O=C1NC(=O)C(=Cc2ccc(Cl)cc2Cl)S1
- IC50 [10]: 4.65 µM (active)

SMILES: Cc1ccccc1/C=N/N1C(=O)CSC1=S
- AC50 [15]: 135 µM (active)
- AC50 [16]: 109 µM (active)

SMILES: COc1ccc2ncn(-c3ccccc3)c2c1
- AC50 [17]: 11.6 µM (active)
- AC50 [18]: 40.2 µM (active)
- IC50 [19]: 34.9 µM (not active)
- AC50 [20]: 20.1 µM (active)
- IC50 (Interleukin-8): 17.3 µM (inactive)
